Test results as given in patent US20210214406A1, “AMYLOSPHEROID (ASPD)-LIKE STRUCTURE AND PHARMACEUTICAL COMPOSITION” (TAO HEALTH LIFE PHARMA CO., LTD., priority 2016, published 2021).

Experiments:
[1] = target: anti-ASPD polyclonal antibody (rpASD1); assay: Dissociation constant with rpASD1 antibody by surface plasmon resonance; assay type: binding, rabbit; conditions: ASPD immobilized as ligand, rpASD1 as analyte, SPR; result in words
[2] = test system: New Zealand white rabbits; assay: Immunogenicity of synthetic ASPD in rabbits (serum dot blot); assay type: in vivo, rabbit; conditions: rabbits immunized six times with 100 μg; Freund's adjuvant, aluminum hydroxide adjuvant, or no adjuvant
Description: New Zealand white rabbits (3 per each condition) were immunized six times with 100 μg of synthetic ASPD using Freund's adjuvant, aluminum hydroxide adjuvant, and no adjuvant. Thereafter, the whole blood was collected and the reactivity to the synthetic ASPD in serum was evaluated by dot blot.

old cynomolgus monkey = assay: Subcutaneous immunization of old cynomolgus monkey with ASPD; assay type: in vivo
[3] = Storage stability at −80° C. (calibration curve slope in sandwich ELISA with two ASPD-specific antibodies); assay type: physicochemical; conditions: stored at −80° C. for 0 month, 3 months, and 6 months
Description: A cell secreted-type ASPD structure obtained by expressing hAPP695-sw-G33I of Test Example 14 was stored at −80° C. for 0 month, 3 months, and 6 months. The samples thus obtained were subjected to measurement performed with a sandwich ELISA using two types of ASPD-specific antibodies (neutralizing antibodies) to prepare a calibration curve.

synthetic ASPD: in vitro synthesized spherical Aß assembly produced by slowly stirring a liquid containing wild type Aß1-42
dissociation constant (KD) / reactivity to rpASD1 [1]: equivalent
reactivity to the synthetic ASPD in serum (dot blot) [2]: sufficient reactivity was obtained in all the rabbits even without using adjuvant
brain glucose metabolism (neural activity) (old cynomolgus monkey): increased
storage stability (slope of primary regression line of ELISA calibration curve) [3]: low storage stability
